Like-named read-outs stand apart in the source and are kept apart here. Blank lines part the entries; values can stand above or below the molecule they belong to.
Molecular target: T1, IRAK4 (Homo sapiens, UniProt Q9NWZ3)
T1 construct: Degradation of IRAK4 in OCI-LY10 was quantitatively measured using Meso Scale Discovery technology; endogenous in cells; host or cells: OCI-LY10
T1 sequence (Q9NWZ3 1-460): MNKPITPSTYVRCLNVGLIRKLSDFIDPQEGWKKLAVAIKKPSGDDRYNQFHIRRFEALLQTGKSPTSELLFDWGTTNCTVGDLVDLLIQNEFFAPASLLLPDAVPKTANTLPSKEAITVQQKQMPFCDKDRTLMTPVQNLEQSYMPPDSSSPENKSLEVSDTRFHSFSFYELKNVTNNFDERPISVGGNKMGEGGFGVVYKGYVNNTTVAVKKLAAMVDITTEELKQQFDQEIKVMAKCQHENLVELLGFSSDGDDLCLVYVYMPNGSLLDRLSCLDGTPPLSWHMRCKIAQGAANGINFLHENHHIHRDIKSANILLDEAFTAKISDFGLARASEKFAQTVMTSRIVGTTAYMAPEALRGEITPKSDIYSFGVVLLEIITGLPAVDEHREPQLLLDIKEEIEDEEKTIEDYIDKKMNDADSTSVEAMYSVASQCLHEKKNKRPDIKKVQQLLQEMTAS
Assay: IRAK4 MSD Degradation in OCI-LY10
Type: cell-based
Details: OCI-LY10 cells, MSD
How it was run: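 OCI-LY10 cells exposed to 8-point 1:3 compound series (top 1 to 10 μM) for 4 to 24 h at 37 °C, 5% CO2. Lysate IRAK4 quantified by MSD sandwich immunoassay. DC50 from three-parameter logistic fit, binned A (<0.01 μM) to D (>0.2 μM or not tested).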

[1] = 4 hrs incubation, read-out: IRAK4 degradation in OCI-LY10 at 4 hrs: DC50
[2] = 24 hrs incubation, read-out: IRAK4 degradation in OCI-LY10 at 24 hrs: DC50

DC50 [1]: > 200 nM
DC50 [2]: < 10 nM
SMILES: Cn1c(=O)n(C2CCC(=O)NC2=O)c2cccc(N3CC(O[C@H]4CCN(C[C@H]5CC[C@H](n6cc(NC(=O)c7cnn8ccc(N9C[C@H]%10C[C@@H]9CO%10)nc78)c(C(F)F)n6)CC5)C[C@H]4F)C3)c21 (stereo partly shown) [I-728]

DC50 [1]: > 200 nM
DC50 [2]: < 10 nM
SMILES: CO[C@]1(CN2CCN(C[C@H]3CC[C@H](n4cc(NC(=O)c5cnn6ccc(N7C[C@H]8C[C@@H]7CO8)nc56)c(C(F)F)n4)CC3)CC2)C[C@@H](c2cccc3c2n(C)c(=O)n3C2CCC(=O)NC2=O)C1 (stereo partly shown) [I-729]

DC50 [1]: > 200 nM
DC50 [2]: < 10 nM
SMILES: Cn1c(=O)n(C2CCC(=O)NC2=O)c2cccc(N3CC(N4CCN([C@H]5CC[C@H](n6cc(NC(=O)c7cnn8ccc(N9C[C@H]%10C[C@@H]9CO%10)nc78)c(C(F)F)n6)CC5)CC4)C3)c21 (stereo partly shown) [I-730]

DC50 [1]: > 200 nM
DC50 [2]: < 10 nM
SMILES: Cn1c(=O)n(C2CCC(=O)NC2=O)c2cccc(N3CC(O[C@@H]4CCN(C[C@H]5CC[C@H](n6cc(NC(=O)c7cnn8ccc(N9C[C@H]%10C[C@@H]9CO%10)nc78)c(C(F)F)n6)CC5)C[C@H]4F)C3)c21 (stereo partly shown) [I-732]

DC50 [1]: > 200 nM
DC50 [2]: < 10 nM
SMILES: Cn1c(=O)n(C2CCC(=O)NC2=O)c2cccc(N3CC(O[C@H]4CCN(C[C@H]5CC[C@H](n6cc(NC(=O)c7cnn8ccc(N9C[C@H]%10C[C@@H]9CO%10)nc78)c(C(F)F)n6)CC5)C[C@@H]4F)C3)c21 (stereo partly shown) [I-733]

DC50 [1]: > 200 nM
DC50 [2]: < 10 nM
SMILES: Cn1c(=O)n(C2CCC(=O)NC2=O)c2cccc(OC3CCN([C@H]4CC[C@H](n5cc(NC(=O)c6cnn7ccc(N8C[C@H]9C[C@@H]8CO9)nc67)c(C(F)F)n5)CC4)CC3)c21 (stereo partly shown) [I-739]

DC50 [1]: > 200 nM
DC50 [2]: < 10 nM
SMILES: Cn1c(=O)n(C2CCC(=O)NC2=O)c2ccc(N3CC(CO[C@@H]4CCN(C[C@H]5CC[C@H](n6cc(NC(=O)c7cnn8ccc(N9C[C@H]%10C[C@@H]9CO%10)nc78)c(C(F)F)n6)CC5)C[C@H]4F)C3)c(F)c21 (stereo partly shown) [I-742]

The remaining lines, values behind:

SMILES: Cn1c(=O)n(C2CCC(=O)NC2=O)c2cccc(C3=CCN(C[C@H]4CC[C@H](n5cc6cc(NC(=O)c7cccc(C(F)(F)F)n7)c(C(F)F)cc6n5)CC4)CC3F)c21 (stereo partly shown) [I-726]
DC50 [1]: > 200 nM
DC50 [2]: < 10 nM

SMILES: Cc1cccc(C(=O)Nc2ccc3nn([C@H]4CC[C@H](CN5CC[C@@H](c6cccc7c6n(C)c(=O)n7C6CCC(=O)NC6=O)[C@H](F)C5)CC4)cc3c2)n1 (stereo partly shown) [I-727]
DC50 [1]: > 200 nM
DC50 [2]: < 10 nM

SMILES: Cn1c(=O)n(C2CCC(=O)NC2=O)c2cccc(C3CCN(C[C@H]4CC[C@H](n5cc6cc(NC(=O)c7cccc(C#N)n7)ncc6n5)CC4)CC3F)c21 (stereo partly shown) [I-731]
DC50 [1]: > 200 nM
DC50 [2]: < 10 nM

SMILES: Cn1c(=O)n(C2CCC(=O)NC2=O)c2cccc(C3CCN(CC4CCC(n5cc6cc(NC(=O)c7cnn8ccc(N9CC%10CC9CO%10)cc78)ncc6n5)CC4)CC3(F)F)c21 (stereo not shown) [I-734]
DC50 [1]: > 200 nM
DC50 [2]: < 10 nM

SMILES: Cn1c(=O)n(C2CCC(=O)NC2=O)c2cccc(N3CCN(C4CCN(C[C@H]5CC[C@H](n6cc(NC(=O)c7cnn8ccc(N9CC%10(COC%10)C9)nc78)c(C(F)F)n6)CC5)CC4(F)F)CC3)c21 (stereo partly shown) [I-735]
DC50 [1]: > 200 nM
DC50 [2]: < 10 nM

SMILES: Cn1c(=O)n(C2CCC(=O)NC2=O)c2ccc(N3CC4(CCN(C[C@H]5CC[C@H](n6cc7cc(NC(=O)c8cccc(C(F)(F)F)n8)ncc7n6)CC5)CC4(F)F)C3)c(F)c21 (stereo partly shown) [I-737]
DC50 [1]: > 200 nM
DC50 [2]: 10 to 100 nM

SMILES: Cn1c(=O)n(C2CCC(=O)NC2=O)c2cccc(OC3CCN([C@H]4CC[C@H](n5cc6cc(NC(=O)c7cccc(C(F)(F)F)n7)ncc6n5)CC4)CC3)c21 (stereo partly shown) [I-740]
DC50 [1]: > 200 nM
DC50 [2]: < 10 nM

SMILES: Cn1c(=O)n(C2CCC(=O)NC2=O)c2cccc(OC3CCN([C@H]4CC[C@H](n5cc6cc(NC(=O)c7cccc(C(F)(F)F)n7)ccc6n5)CC4)CC3)c21 (stereo partly shown) [I-741]
DC50 [1]: > 200 nM
DC50 [2]: < 10 nM

SMILES: Cn1c(=O)n(C2CCC(=O)NC2=O)c2ccnc(N3CCN([C@@H]4CCN(C[C@H]5CC[C@H](n6cc(NC(=O)c7cnn8ccc(N9C[C@H]%10C[C@@H]9CO%10)nc78)c(C(F)F)n6)CC5)CC4(F)F)CC3)c21 (stereo partly shown) [I-743]
DC50 [1]: > 200 nM
DC50 [2]: < 10 nM

SMILES: Cn1c(=O)n(C2CCC(=O)NC2=O)c2ccnc(N3CCN([C@H]4CCN(C[C@H]5CC[C@H](n6cc(NC(=O)c7cnn8ccc(N9C[C@H]%10C[C@@H]9CO%10)nc78)c(C(F)F)n6)CC5)CC4(F)F)CC3)c21 (stereo partly shown) [I-744]
DC50 [1]: > 200 nM
DC50 [2]: < 10 nM

Reference: patent US12091411B2, “IRAK degraders and uses thereof” (Kymera Therapeutics, Inc., priority 2022, dated 2024)
